Measurements taken from patent publication US12296053B2, “Nanomaterials comprising triols” (Beam Therapeutics Inc., priority 2022, dated 2025).

What was measured:
[1] = LNP hydrodynamic diameter and polydispersity index by dynamic light scattering (DLS); format: physicochemical; conditions: for Diameter (nm): hydrodynamic diameter of the LNP preparation with the ionizable lipid; for PDI: polydispersity index of the LNP preparation with the ionizable lipid
Protocol: (§1) A 3:1 ratio of aqueous to organic solvent was maintained during mixing using differential flow rates. After mixing, LNP preparations were collected and diluted in TBS (approximately 7:1 v/v), and further buffer exchange was conducted using dialysis in TBS at 4° C. for 8 to 24 hours against a 20 kDa filter. After this initial dialysis, each individual LNP preparation was characterized via dynamic light scattering (DLS) to measure size and polydispersity. pKa of a subpopulation of LNP preparations was measured via TNS assay.
DLS-LNP preparation hydrodynamic diameter and polydispersity index (PDI) was measured using high throughput dynamic light scattering (DLS) (DynaPro plate reader II, Wyatt). LNP preparations were diluted 1×PBS to an appropriate concentration and analyzed.

ALAS1 target site = assay: Base editing in liver by LNP-delivered ABE mRNA and sgRNA, targeted deep sequencing; format: in vivo; conditions: LNP with the ionizable lipid, ABE mRNA + sgRNA targeting ALAS1 1:1; tail vein injection, Balb/c mice; 0.05 mg/kg; tissues four to six days post-dose
Protocol: (§2) Lipid nanoparticle components were dissolved in 100% ethanol at specified lipid component molar ratios. mRNA encoding an adenine base editor and a chemically-modified sgRNA was dissolved at a mass ratio of 1:1 in 50 mM citrate, pH 4.0, resulting in a concentration of NA cargo of approximately 0.1 mg/mL.
(§3) LNP preparations were formulated with molar ratios of 47.5% Ionizable Lipid: 40% Cholesterol: 2.5% PEG2000-DMG: 10% DSPC total lipid to NA molar ratio of 6 to 12.
(§4) LNP preparations were formed by microfluidic mixing of the lipid and NA solutions using Precision Nanosystems NanoAssemblr Ignite series Instruments, according to the manufacturer's protocol.
as §1
Male Balb/C mice aged approximately 8-12 weeks were used in the experiments described herein. […]
Age-matched mice were also used to administer vehicle (1×TBS) via tail vein injection as a control. Four to six days post-dose, tissues including liver, spleen, and bone marrow were collected. Base editing was determined by performing targeted deep sequencing analysis at the ALAS1 target site using extracted genomic DNA. Genomic DNA was isolated and fragmented and adapter-ligated using the Nextera DNA Flex Library Prep Kit (Illumina) using the 96-well plate Nextera indexing primers (Illumina), according to the manufacturer's instructions. Library size and concentration was confirmed by Fragment Analyzer (Agilent) and analyzed for whole genome sequencing using an Illumina HiSeq.

[2] = Encapsulation efficiency of LNP preparations (Ribogreen assay; Qubit, unlysed and lysed LNPs); format: physicochemical; conditions: LNP preparation with the ionizable lipid, ABE mRNA:sgRNA 1:1, except 7-1, 7-2, 7-6, 7-10 (unlysed and lysed LNPs, Qubit)
Protocol: as §2, §3, §4
With the exception of LNPs comprising ionizable lipids 7-1, 7-2, 7-6, and 7-10, RNA concentration and encapsulation efficiency were determined by Ribogreen assay (BioTek Synergy LX plate reader). For LNPs comprising ionizable lipids 7-1, 7-2, 7-6, and 7-10, RNA concentration was determined by Qubit microRNA kit (for siRNA) or HS RNA kit (for mRNA) per manufacturer's instructions, and encapsulation efficiency was determined by measuring unlysed and lysed LNPs.

Row | Structure (SMILES) | Diameter (nm) [1] [nm] | PDI [1] | % Editing in Liver (0.05 mpk) (ALAS1 target site) [%] | Encapsulation Efficiency (%) [2] [%]
1 | CC/C=C\CCCCOC(CCC(=O)OCC(COC(=O)CCCCCCC(=O)OCCC(CCCCC)CCCCC)COC(=O)CCC(CCCCCC)OC(=O)NCCN1CCCC1)OCCCC/C=C\CC (stereo not shown) [Compound 7-19, 1-(3-((4,4-bis(((Z)-oct-5-en-1-yl)oxy)butanoyl)oxy)-2-(((4-(((2-(pyrrolidin-1-yl)ethyl)carbamoyl)oxy)decanoyl)oxy)methyl)propyl) 8-(3-pentyloctyl) octanedioate] | 54.15 | 0.12 | 1.7 | 97.2
2 | CC/C=C\CCCCOC(CCC(=O)OCC(COC(=O)CCCCCCOC(=O)C(CCCC)CCCCCC)COC(=O)CCC(CCCCCC)OC(=O)NCCN1CCCC1)OCCCC/C=C\CC (stereo not shown) [Compound 7-7, 3-((4,4-bis(((Z)-oct-5-en-1-yl)oxy)butanoyl)oxy)-2-(((7-((2-butyloctanoyl)oxy)heptanoyl)oxy)methyl)propyl 4-(((2-(pyrrolidin-1-yl)ethyl)carbamoyl)oxy)decanoate] | 66.85 | 0.06 |  | 95.0
3 | CC/C=C\CCCCOC(CCC(=O)OCC(COC(=O)CCCCCCOC(=O)C(CCCC)CCCCCC)COC(=O)CCC(C)OC(=O)NCCN1CCCC1)OCCCC/C=C\CC (stereo not shown) [Compound 7-28, 12-(((4,4-bis(((Z)-oct-5-en-1-yl)oxy)butanoyl)oxy)methyl)-6-methyl-4,9,15-trioxo-1-(pyrrolidin-1-yl)-5,10,14-trioxa-3-azahenicosan-21-yl 2-butyloctanoate] | 74.80 | 0.09 |  | 99.2
4 | CC/C=C\CCCCOC(CCC(=O)OCC(COC(=O)CCCCCC(=O)OCCC(CCCCC)CCCCC)COC(=O)CCC(CC)OC(=O)NCCN1CCCC1)OCCCC/C=C\CC (stereo not shown) [Compound 7-24, 1-(3-((4,4-bis(((Z)-oct-5-en-1-yl)oxy)butanoyl)oxy)-2-(((4-(((2-(pyrrolidin-1-yl)ethyl)carbamoyl)oxy)hexanoyl)oxy)methyl)propyl) 7-(3-pentyloctyl) heptanedioate] | 84.01 | 0.09 |  | 85.9
5 | CC/C=C\CCCCOC(CCC(=O)OCC(COC(=O)CCCCCCC/C=C\C/C=C\CCCCC)COC(=O)CCC(CCCCCC)OC(=O)NCCN1CCCC1)OCCCC/C=C\CC (stereo not shown) [Compound 7-2, 3-((4,4-bis(((Z)-oct-5-en-1-yl)oxy)butanoyl)oxy)-2-(((4-(((2-(pyrrolidin-1-yl)ethyl)carbamoyl)oxy)decanoyl)oxy)methyl)propyl (9Z,12Z)-octadeca-9,12-dienoate] | 43.80 | 0.04 |  | 97.8
6 | CC/C=C\CCCCOC(CCC(=O)OCC(COC(=O)CCCCCCC/C=C\C/C=C\CCCCC)COC(=O)CCC(CCCCCC)OC(=O)OCCCN(C)C)OCCCC/C=C\CC (stereo not shown) [Compound 7-3, 15-(((4,4-bis(((Z)-oct-5-en-1-yl)oxy)butanoyl)oxy)methyl)-9-hexyl-2-methyl-7,12-dioxo-6,8,13-trioxa-2-azahexadecan-16-yl (9Z,12Z)-octadeca-9,12-dienoate] | 85.72 | 0.72 |  | 19.8
7 | CC/C=C\CCCCOC(CCC(=O)OCC(COC(=O)CCCCCCOC(=O)C(CCCC)CCCCCC)COC(=O)CCC(CCC)OC(=O)NCCN1CCCC1)OCCCC/C=C\CC (stereo not shown) [Compound 7-21, 12-(((4,4-bis(((Z)-oct-5-en-1-yl)oxy)butanoyl)oxy)methyl)-4,9,15-trioxo-6-propyl-1-(pyrrolidin-1-yl)-5,10,14-trioxa-3-azahenicosan-21-yl 2-butyloctanoate] | 83.43 | 0.03 |  | 99.2
8 | CC/C=C\CCCCOC(CCC(=O)OCC(COC(=O)CCCCCCC/C=C\C/C=C\CCCCC)COC(=O)OCC(CCCCCC)OC(=O)NCCN1CCCC1)OCCCC/C=C\CC (stereo not shown) [Compound 7-5, 12-(((4,4-bis(((Z)-oct-5-en-1-yl)oxy)butanoyl)oxy)methyl)-6-hexyl-4,9-dioxo-1-(pyrrolidin-1-yl)-5,8,10-trioxa-3-azatridecan-13-yl (9Z,12Z)-octadeca-9,12-dienoate] | 78.39 | 0.09 |  | 87.2
9 | CC/C=C\CCCCOC(CCC(=O)OCC(COC(=O)CCCCCCOC(=O)C(CCCC)CCCCCC)COC(=O)CCC(CCCCCC)OC(=O)NCCN(C)CC)OCCCC/C=C\CC (stereo not shown) [Compound 7-43, 3-((4,4-bis(((Z)-oct-5-en-1-yl)oxy)butanoyl)oxy)-2-(((7-((2-butyloctanoyl)oxy)heptanoyl)oxy)methyl)propyl 4-(((2-(ethyl(methyl)amino)ethyl)carbamoyl)oxy)decanoate] | 114.2 | 0.11 |  | 89.2
10 | CC/C=C\CCCCOC(CCC(=O)OCC(COC(=O)CCCCCCCOC(=O)C(CCCC)CCCCCC)COC(=O)CCC(CCCCCC)OC(=O)NCCN1CCCC1)OCCCC/C=C\CC (stereo not shown) [Compound 7-6, 3-((4,4-bis(((Z)-oct-5-en-1-yl)oxy)butanoyl)oxy)-2-(((8-((2-butyloctanoyl)oxy)octanoyl)oxy)methyl)propyl 4-(((2-(pyrrolidin-1-yl)ethyl)carbamoyl)oxy)decanoate] | 85.01 | 0.08 |  | 91.3
11 | CC/C=C\CCCCOC(CCC(=O)OCC(COC(=O)CCCCCCC/C=C\C/C=C\CCCCC)COC(=O)CCC(CCCCCC)OC(=O)OCCCN(CC)CC)OCCCC/C=C\CC (stereo not shown) [Compound 7-10, 16-(((4,4-bis(((Z)-oct-5-en-1-yl)oxy)butanoyl)oxy)methyl)-3-ethyl-10-hexyl-8,13-dioxo-7,9,14-trioxa-3-azaheptadecan-17-yl (9Z,12Z)-octadeca-9,12-dienoate] | 76.95 | 0.09 |  | 88.2
12 | CC/C=C\CCCCOC(CCC(=O)OCC(COC(=O)CCCCCCOC(=O)C(CCCC)CCCCCC)COC(=O)CCC(CC)OC(=O)NCCN1CCCC1)OCCCC/C=C\CC (stereo not shown) [Compound 7-20, 12-(((4,4-bis(((Z)-oct-5-en-1-yl)oxy)butanoyl)oxy)methyl)-6-ethyl-4,9,15-trioxo-1-(pyrrolidin-1-yl)-5,10,14-trioxa-3-azahenicosan-21-yl 2-butyloctanoate] | 84.26 | 0.06 |  | 99.4
13 | CC/C=C\CCCCOC(CCC(=O)OCC(COC(=O)CCCCCC(=O)OCCC(CCCCC)CCCCC)COC(=O)CCC(CCCC)OC(=O)NCCN1CCCC1)OCCCC/C=C\CC (stereo not shown) [Compound 7-26, 1-(3-((4,4-bis(((Z)-oct-5-en-1-yl)oxy)butanoyl)oxy)-2-(((4-(((2-(pyrrolidin-1-yl)ethyl)carbamoyl)oxy)octanoyl)oxy)methyl)propyl) 7-(3-pentyloctyl) heptanedioate] | 60.05 | 0.11 |  | 98.5
14 | CCCCC/C=C\C/C=C\CCCCCCCC(=O)OCC(COC(=O)CCC(CCCCCC)OC(=O)NCCN1CCCC1)COC(=O)CCC(OCCCCCCCC)OCCCCCCCC (stereo not shown) [Compound 7-1, 3-((4,4-bis(octyloxy)butanoyl)oxy)-2-(((4-(((2-(pyrrolidin-1-yl)ethyl)carbamoyl)oxy)decanoyl)oxy)methyl)propyl (9Z,12Z)-octadeca-9,12-dienoate] | 64.70 | 0.14 |  | 97.5
